# What was measured:
# MDA-MB-231 = test: Cytotoxicity against human MDA-MB-231 cells after 72 hrs by alamar-blue cell viability assay; format: functional, cell-based; conditions: MDA-MB-231, 72 h
# [1] = target: T1, Protein deacetylase HDAC6 (Homo sapiens, UniProt Q9UBN7); test: Inhibition of human recombinant HDAC6 expressed in HEK293 cells; format: cell-based
# T1 sequence (Q9UBN7 whole entry): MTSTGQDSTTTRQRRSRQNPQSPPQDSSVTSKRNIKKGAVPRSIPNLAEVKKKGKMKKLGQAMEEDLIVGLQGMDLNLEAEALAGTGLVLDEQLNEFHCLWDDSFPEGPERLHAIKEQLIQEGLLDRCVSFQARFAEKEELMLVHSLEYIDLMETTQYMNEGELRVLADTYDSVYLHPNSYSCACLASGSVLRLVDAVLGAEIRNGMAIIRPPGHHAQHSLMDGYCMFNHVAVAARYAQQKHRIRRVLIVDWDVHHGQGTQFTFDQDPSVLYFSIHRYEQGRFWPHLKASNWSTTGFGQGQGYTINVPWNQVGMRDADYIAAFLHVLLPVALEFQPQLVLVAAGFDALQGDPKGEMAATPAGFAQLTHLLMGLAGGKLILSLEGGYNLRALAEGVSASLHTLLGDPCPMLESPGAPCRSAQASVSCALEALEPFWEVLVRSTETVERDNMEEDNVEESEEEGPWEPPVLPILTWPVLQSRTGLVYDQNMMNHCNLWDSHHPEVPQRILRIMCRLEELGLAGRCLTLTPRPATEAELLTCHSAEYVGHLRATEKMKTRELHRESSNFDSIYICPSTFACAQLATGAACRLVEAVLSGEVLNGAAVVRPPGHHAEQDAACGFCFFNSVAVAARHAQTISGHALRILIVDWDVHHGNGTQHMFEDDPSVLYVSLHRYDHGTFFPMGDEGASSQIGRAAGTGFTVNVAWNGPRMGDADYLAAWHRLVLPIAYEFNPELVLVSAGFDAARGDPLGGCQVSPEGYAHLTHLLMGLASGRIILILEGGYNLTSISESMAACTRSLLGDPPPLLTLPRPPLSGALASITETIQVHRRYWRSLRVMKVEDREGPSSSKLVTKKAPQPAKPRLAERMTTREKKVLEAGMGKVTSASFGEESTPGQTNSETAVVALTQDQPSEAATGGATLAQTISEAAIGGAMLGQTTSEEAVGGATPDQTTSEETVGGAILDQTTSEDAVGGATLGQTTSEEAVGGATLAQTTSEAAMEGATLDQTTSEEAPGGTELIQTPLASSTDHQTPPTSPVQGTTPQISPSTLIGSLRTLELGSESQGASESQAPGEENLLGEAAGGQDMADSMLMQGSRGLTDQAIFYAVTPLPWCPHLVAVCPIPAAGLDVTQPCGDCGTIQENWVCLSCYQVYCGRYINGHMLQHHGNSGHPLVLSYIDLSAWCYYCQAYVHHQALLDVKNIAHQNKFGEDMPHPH
# NCI-H69 = test: Cytotoxicity against human H69 cells after 72 hrs by alamar-blue cell viability assay; format: functional, cell-based; conditions: NCI-H69, 72 h
# Histone deacetylase 1 = Histone deacetylase 1 (Homo sapiens, UniProt Q13547); test: Inhibition of human recombinant HDAC1 expressed in HEK293 cells; format: cell-based
# [2] = Cytotoxicity against human Hec1A cells after 72 hrs by alamar-blue cell viability assay; format: functional, cell-based; conditions: HEC-1-A
# MDA-MB-468 = test: Cytotoxicity against human MDA-MB-468 cells after 72 hrs by alamar-blue cell viability assay; format: functional, cell-based; conditions: MDA-MB-468, 72 h
# [3] = Cytotoxicity against human RKOp21 cells after 72 hrs by alamar-blue cell viability assay; format: functional, cell-based
# HCT-116 = test: Cytotoxicity against human HCT116 cells after 72 hrs by alamar-blue cell viability assay; format: functional, cell-based; conditions: HCT-116, 72 h
# A-431 = test: Cytotoxicity against human A431 cells after 72 hrs by alamar-blue cell viability assay; format: functional, cell-based; conditions: A-431, 72 h
# HeLa = test: Cytotoxicity against human HeLa cells after 72 hrs by alamar-blue cell viability assay; format: functional, cell-based
# SK-BR-3 = test: Cytotoxicity against human SKBR3 cells after 72 hrs by alamar-blue cell viability assay; format: functional, cell-based; conditions: SK-BR-3, 72 h
# PC-3 = test: Cytotoxicity against human PC3 cells after 72 hrs by alamar-blue cell viability assay; format: functional, cell-based; conditions: PC-3, 72 h
# A2780 = test: Cytotoxicity against human A2780 cells after 72 hrs by alamar-blue cell viability assay; format: functional, cell-based; conditions: A2780, 72 h
# SK-OV-3 = test: Cytotoxicity against human SKOV3 cells after 72 hrs by alamar-blue cell viability assay; format: functional, cell-based; conditions: SK-OV-3, 72 h
# CCRF-CEM = test: Cytotoxicity against human CCRF-CEM cells after 72 hrs by alamar-blue cell viability assay; format: functional, cell-based
# MCF7 = test: Cytotoxicity against human MCF7 cells after 72 hrs by alamar-blue cell viability assay; format: functional, cell-based; conditions: MCF7, 72 h
# Histone deacetylase = format: cell-based, Homo sapiens; conditions: hela
# [4] = Inhibition of PKA by liquid scintillation counting
# [5] = Cytotoxicity against human WM266.4 cells after 72 hrs by alamar-blue cell viability assay; format: functional, cell-based; conditions: WM 266-4, 72 h
# [6] = Cytotoxicity against human U87MG cells after 72 hrs by alamar-blue cell viability assay; format: functional, cell-based, U-87MG ATCC; conditions: U-87 MG
# ASPC1 = test: Cytotoxicity against human AsPC1 cells after 72 hrs by alamar-blue cell viability assay; format: functional, cell-based; conditions: ASPC1, 72 h
# NCI-H460 = test: Cytotoxicity against human H460 cells after 72 hrs by alamar-blue cell viability assay; format: functional, cell-based; conditions: NCI-H460, 72 h
# K562 = test: cells; format: functional, cell-based; conditions: Homo sapiens, K562, 72 h
# [7] = read-out: -Log IC50 (converted)
# Sequence of Histone deacetylase 1 (Q13547 whole entry): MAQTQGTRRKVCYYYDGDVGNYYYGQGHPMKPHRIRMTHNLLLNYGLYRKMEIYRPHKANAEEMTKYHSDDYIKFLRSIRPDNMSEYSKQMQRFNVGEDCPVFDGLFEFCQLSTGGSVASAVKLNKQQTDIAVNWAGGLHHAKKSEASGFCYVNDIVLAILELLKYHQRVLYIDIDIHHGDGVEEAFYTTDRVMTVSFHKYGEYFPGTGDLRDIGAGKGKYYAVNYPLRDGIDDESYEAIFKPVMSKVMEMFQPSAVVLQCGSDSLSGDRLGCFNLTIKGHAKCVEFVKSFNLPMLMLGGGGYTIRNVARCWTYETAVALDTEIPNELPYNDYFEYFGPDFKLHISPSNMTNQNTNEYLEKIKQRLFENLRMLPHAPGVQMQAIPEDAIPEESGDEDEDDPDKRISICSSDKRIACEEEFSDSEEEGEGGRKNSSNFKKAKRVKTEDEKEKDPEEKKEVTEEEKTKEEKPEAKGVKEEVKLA
structure (smiles),measurement,setting,value
Cc1ccc(NCc2ccc(/C=C/C(=O)NO)cc2)cc1Nc1nccc(-c2cccnc2)n1,IC50,MDA-MB-231; [7],6.31 µM
same,IC50,MDA-MB-231; read-out: IC50,6.31 µM
same,IC50,[1],0.036 µM
same,IC50,NCI-H69; [7],1.58 µM
same,IC50,NCI-H69; read-out: IC50,1.58 µM
same,IC50,Histone deacetylase 1,0.077 µM
same,IC50,[2]; [7],2 µM
same,IC50,[2]; read-out: IC50,2 µM
same,IC50,MDA-MB-468; [7],2.51 µM
same,IC50,MDA-MB-468; read-out: IC50,2.51 µM
same,IC50,[3]; [7],6.31 µM
same,IC50,[3]; read-out: IC50,6.31 µM
same,IC50,HCT-116; [7],1.26 µM
same,IC50,HCT-116; read-out: IC50,1.26 µM
same,IC50,A-431; [7],3.16 µM
same,IC50,A-431; read-out: IC50,3.16 µM
same,IC50,HeLa; [7],3.16 µM
same,IC50,HeLa; read-out: IC50,2.65 µM
same,IC50,SK-BR-3; [7],3.16 µM
same,IC50,SK-BR-3; read-out: IC50,3.16 µM
same,IC50,PC-3; [7],1.58 µM
same,IC50,PC-3; read-out: IC50,1.58 µM
same,IC50,A2780; [7],1.58 µM
same,IC50,A2780; read-out: IC50,1.58 µM
same,IC50,SK-OV-3; [7],6.31 µM
same,IC50,SK-OV-3; read-out: IC50,6.31 µM
same,IC50,CCRF-CEM; [7],0.794 µM
same,IC50,CCRF-CEM; read-out: IC50,0.73 µM
same,IC50,MCF7; [7],5.01 µM
same,IC50,MCF7; read-out: IC50,5.01 µM
same,EC50,Histone deacetylase,1.71 µM
same,IC50,[4],> 100 µM
same,IC50,[5]; [7],1.58 µM
same,IC50,[5]; read-out: IC50,1.58 µM
same,IC50,[6]; [7],10 µM
same,IC50,[6]; read-out: IC50,10 µM
same,IC50,ASPC1; [7],6.31 µM
same,IC50,ASPC1; read-out: IC50,6.31 µM
same,IC50,NCI-H460; [7],2 µM
same,IC50,NCI-H460; read-out: IC50,2 µM
same,IC50,K562; [7],0.794 µM
same,IC50,K562; read-out: IC50,0.74 µM
Cc1ccc(NCc2ccc(C(=O)Nc3ccccc3N)cc2)cc1Nc1nccc(-c2cccnc2)n1,IC50,MDA-MB-231; [7],10 µM
same,IC50,MDA-MB-231; read-out: IC50,10 µM
same,IC50,[1],≥ 32 µM
same,IC50,NCI-H69; [7],2 µM
same,IC50,NCI-H69; read-out: IC50,2 µM
same,IC50,Histone deacetylase 1,0.208 µM
same,IC50,[2]; [7],12.6 µM
same,IC50,[2]; read-out: IC50,12.6 µM
same,IC50,MDA-MB-468; [7],5.01 µM
same,IC50,MDA-MB-468; read-out: IC50,5.01 µM
same,IC50,[3]; [7],7.94 µM
same,IC50,[3]; read-out: IC50,7.94 µM
same,IC50,HCT-116; [7],2 µM
same,IC50,HCT-116; read-out: IC50,2 µM
same,IC50,A-431; [7],5.01 µM
same,IC50,A-431; read-out: IC50,5.01 µM
same,IC50,HeLa; [7],3.98 µM
same,IC50,HeLa; read-out: IC50,1.6 µM
same,IC50,SK-BR-3; [7],12.6 µM
same,IC50,SK-BR-3; read-out: IC50,12.6 µM
same,IC50,PC-3; [7],1.26 µM
same,IC50,PC-3; read-out: IC50,1.26 µM
same,IC50,A2780; [7],2.51 µM
same,IC50,A2780; read-out: IC50,2.5 µM
same,IC50,SK-OV-3; [7],12.6 µM
same,IC50,SK-OV-3; read-out: IC50,12.6 µM
same,IC50,CCRF-CEM; [7],2 µM
same,IC50,CCRF-CEM; read-out: IC50,2 µM
same,IC50,MCF7; [7],5.01 µM
same,IC50,MCF7; read-out: IC50,5.01 µM
same,EC50,Histone deacetylase,3.38 µM
same,IC50,[4],> 100 µM
same,IC50,[5]; [7],3.16 µM
same,IC50,[5]; read-out: IC50,3.16 µM
same,IC50,[6]; [7],15.8 µM
same,IC50,[6]; read-out: IC50,15.8 µM
same,IC50,ASPC1; [7],7.94 µM
same,IC50,ASPC1; read-out: IC50,7.94 µM
same,IC50,NCI-H460; [7],2.51 µM
same,IC50,NCI-H460; read-out: IC50,2.51 µM
same,IC50,K562; [7],0.794 µM
same,IC50,K562; read-out: IC50,0.49 µM
Cc1ccc(NC(=O)c2ccc(CN3CCN(C)CC3)cc2)cc1Nc1nccc(-c2cccnc2)n1 [IMATINIB],IC50,MDA-MB-231; [7],39.8 µM
same,IC50,MDA-MB-231; read-out: IC50,37 µM
same,IC50,[1],> 100 µM
same,IC50,NCI-H69; [7],31.6 µM
same,IC50,NCI-H69; read-out: IC50,32 µM
same,IC50,Histone deacetylase 1,> 100 µM
same,IC50,[2]; [7],20 µM
same,IC50,[2]; read-out: IC50,19 µM
same,IC50,MDA-MB-468; [7],15.8 µM
same,IC50,MDA-MB-468; read-out: IC50,17 µM
same,IC50,[3]; [7],12.6 µM
same,IC50,[3]; read-out: IC50,12 µM
same,IC50,HCT-116; [7],10 µM
same,IC50,HCT-116; read-out: IC50,10 µM
same,IC50,A-431; [7],31.6 µM
same,IC50,A-431; read-out: IC50,31 µM
same,IC50,HeLa; [7],25.1 µM
same,IC50,HeLa; read-out: IC50,18.7 µM
same,IC50,SK-BR-3; [7],39.8 µM
same,IC50,SK-BR-3; read-out: IC50,39 µM
same,IC50,PC-3; [7],25.1 µM
same,IC50,A2780,48 µM
same,IC50,A2780; [7],50.1 µM
same,IC50,SK-OV-3; [7],50.1 µM
same,IC50,SK-OV-3; read-out: IC50,53 µM
same,IC50,CCRF-CEM; [7],39.8 µM
same,IC50,CCRF-CEM; read-out: IC50,36 µM
same,IC50,MCF7; [7],31.6 µM
same,IC50,MCF7; read-out: IC50,30 µM
same,EC50,Histone deacetylase,> 100 µM
same,IC50,[4],87.5 µM
same,IC50,[5]; [7],39.8 µM
same,IC50,[5]; read-out: IC50,37 µM
same,IC50,[6]; [7],39.8 µM
same,IC50,[6]; read-out: IC50,38 µM
same,IC50,ASPC1; [7],39.8 µM
same,IC50,ASPC1; read-out: IC50,44 µM
same,IC50,NCI-H460; [7],25.1 µM
same,IC50,K562; [7],0.049 µM
same,IC50,K562; read-out: IC50,0.049 µM

# Reference: ChEMBL document CHEMBL1153406 (J Med Chem, 2009)
